Measurements taken from patent US12458021B2, “Microbiocidal derivatives” (SYNGENTA CROP PROTECTION AG, priority 2019, dated 2025).

What was measured:
Assay type in all cases: cell-based
[1] = system: Glomerella lagenarium (Colletotrichum lagenarium); test: Glomerella lagenarium (Colletotrichum lagenarium) / liquid culture (anthracnose); conditions: Colletotrichum orbiculare, PDB potato dextrose broth, 24° C., 3-4 days after application, read-out: control of Glomerella lagenarium (inhibition of growth, photometric)
Description: Example B3: Glomerella lagenarium (Colletotrichum lagenarium)/Liquid Culture (Anthracnose) Conidia of the fungus from cryogenic storage are directly mixed into nutrient broth (PDB potato dextrose broth). After placing a (DMSO) solution of test compound into a microtiter plate (96-well format), the nutrient broth containing the fungal spores is added. The test plates are incubated at 24° C. and the inhibition of growth is measured photometrically 3-4 days after application. […] […]-191.

[2] = system: Monographella nivalis (Microdochium nivale); test: Monographella nivalis (Microdochium nivale) / liquid culture (foot rot cereals); conditions: PDB potato dextrose broth, 24° C., 4-5 days after application, read-out: control of Monographella nivalis (inhibition of growth, photometric)
Description: Example B7: Monographella nivalis (Microdochium nivale)/Liquid Culture (Foot Rot Cereals) Conidia of the fungus from cryogenic storage are directly mixed into nutrient broth (PDB potato dextrose broth). After placing a (DMSO) solution of test compound into a microtiter plate (96-well format), the nutrient broth containing the fungal spores is added. The test plates are incubated at 24° C. and the inhibition of growth is determined photometrically 4-5 days after application. […] […]-190.

[3] = system: Mycosphaerella graminicola (Septoria tritici); test: Mycosphaerella graminicola (Septoria tritici) / liquid culture (Septoria blotch); conditions: Zymoseptoria tritici, PDB potato dextrose broth, 24° C., 4-5 days after application, read-out: control of Mycosphaerella graminicola (inhibition of growth, photometric)
Description: Example B15: Mycosphaerella graminicola (Septoria tritici)/Liquid Culture (Septoria Blotch) Conidia of the fungus from cryogenic storage are directly mixed into nutrient broth (PDB potato dextrose broth). After placing a (DMSO) solution of test compound into a microtiter plate (96-well format), the nutrient broth containing the fungal spores is added. The test plates are incubated at 24° C. and the inhibition of growth is determined photometrically 4-5 days after application. […] […]-191.

SMILES	inhibition at 20 ppm [1] [%]	inhibition at 20 ppm [2] [%]	inhibition at 20 ppm [3] [%]
CC1(C)CCC1NC(=O)c1nc(Nc2cc(F)cc(F)c2)ccc1O (centres unmarked) [Compound P-2, 6-(3,5-difluoroanilino)-N-(2,2-dimethylcyclobutyl)-3-hydroxy-pyridine-2-carboxamide]	≥ 80	≥ 80	≥ 80
O=C(NC1CCC12CCCC2)c1nc(Nc2cc(F)nc(F)c2)ccc1O (centres unmarked) [Compound P-3, 6-[(2,6-difluoro-4-pyridyl)amino]-3-hydroxy-N-spiro[3.4]octan-3-yl-pyridine-2-carboxamide]	≥ 80	≥ 80	≥ 80
COc1ccc(Nc2nccs2)nc1C(=O)NC1CCC1(C)C (centres unmarked) [Compound P-5, N-(2,2-dimethylcyclobutyl)-3-methoxy-6-(thiazol-2-ylamino)pyridine-2-carboxamide]	–	≥ 80	–
COc1cnc(Nc2cc(F)cc(F)c2)nc1C(=O)NCCC(C)C [Compound P-8, 2-(3,5-difluoroanilino)-N-isopentyl-5-methoxy-pyrimidine-4-carboxamide]	≥ 80	≥ 80	≥ 80
CC1(C)CCC1NC(=O)c1nc(Nc2cncc(F)c2)ccc1O (centres unmarked) [Compound P-12, N-(2,2-dimethylcyclobutyl)-6-[(5-fluoro-3-pyridyl)amino]-3-hydroxy-pyridine-2-carboxamide]	–	≥ 80	–
CC1(C)CCC1NC(=O)c1nc(Nc2ccc(F)nc2)ccc1O (centres unmarked) [Compound P-13, N-(2,2-dimethylcyclobutyl)-6-[(6-fluoro-3-pyridyl)amino]-3-hydroxy-pyridine-2-carboxamide]	≥ 80	≥ 80	–
CC1(C)CCC1NC(=O)c1nc(Nc2ccnc(Cl)c2)ccc1O (centres unmarked) [Compound P-14, 6-[(2-chloro-4-pyridyl)amino]-N-(2,2-dimethylcyclobutyl)-3-hydroxy-pyridine-2-carboxamide]	≥ 80	≥ 80	–
CC1(C)CCC1NC(=O)c1nc(Nc2cncnc2)ccc1O (centres unmarked) [Compound P-15, N-(2,2-dimethylcyclobutyl)-3-hydroxy-6-(pyrimidin-5-ylamino)pyridine-2-carboxamide]	–	≥ 80	–
CC1(C)CCC1NC(=O)c1nc(Nc2ccccc2)ccc1O (centres unmarked) [Compound P-16, 6-anilino-N-(2,2-dimethylcyclobutyl)-3-hydroxy-pyridine-2-carboxamide]	≥ 80	≥ 80	≥ 80
CC1(C)CCC1NC(=O)c1nc(Nc2ccc3c(c2)OCO3)ccc1O (centres unmarked) [Compound P-17, 6-(1,3-benzodioxo1-5-ylamino)-N-(2,2-dimethylcyclobutyl)-3-hydroxy-pyridine-2-carboxamide]	–	≥ 80	–
CC1(C)CCC1NC(=O)c1nc(Nc2ccnc(F)c2)ccc1O (centres unmarked) [Compound P-18, N-(2,2-dimethylcyclobutyl)-6-[(2-fluoro-4-pyridyl)amino]-3-hydroxy-pyridine-2-carboxamide]	≥ 80	≥ 80	≥ 80
COc1ccc(Nc2cc(F)cc(F)c2)nc1C(=O)NCC#CC(C)(C)C [Compound P-28, 6-(3,5-difluoroanilino)-N-(4,4-dimethylpent-2-ynyl)-3-methoxy-pyridine-2-carboxamide]	–	–	≥ 80
COc1ccc(Nc2cnsc2)nc1C(=O)NCC#CC(C)(C)C [Compound P-34, N-(4,4-dimethylpent-2-ynyl)-6-(isothiazol-4-ylamino)-3-methoxy-pyridine-2-carboxamide]	–	–	≥ 80
COc1ccc(Nc2cnsc2)nc1C(=O)NCc1ccc(Cl)cc1 [Compound P-37, N-[(4-chlorophenyl)methyl]-6-(isothiazol-4-ylamino)-3-methoxy-pyridine-2-carboxamide]	≥ 80	≥ 80	≥ 80
COc1ccc(Nc2cnsc2)nc1C(=O)NC(C)COc1cc(F)cc(F)c1 (centres unmarked) [Compound P-38, N-[2-(3,5-difluorophenoxy)-1-methyl-ethyl]-6-(isothiazol-4-ylamino)-3-methoxy-pyridine-2-carboxamide]	–	≥ 80	≥ 80
COc1ccc(Nc2cnsc2)nc1C(=O)NCCOc1ccc(Cl)cc1Cl [Compound P-39, N-[2-(2,4-dichlorophenoxy)ethyl]-6-(isothiazol-4-ylamino)-3-methoxy-pyridine-2-carboxamide]	≥ 80	≥ 80	≥ 80

SMILES	inhibition at 20 ppm [1] [%]	inhibition at 20 ppm [2] [%]	inhibition at 20 ppm [3] [%]
COc1ccc(NCC2CC2)nc1C(=O)NCC(C)(C)C [Compound P-40, 6-(cyclopropylmethylamino)-N-(2,2-dimethylpropyl)-3-methoxy-pyridine-2-carboxamide]	–	≥ 80	≥ 80
COc1ccc(NC2CCC2)nc1C(=O)NCC(C)(C)C [Compound P-41, 6-(cyclobutylamino)-N-(2,2-dimethylpropyl)-3-methoxy-pyridine-2-carboxamide]	–	–	≥ 80
COc1ccc(NCC(C)(C)C)nc1C(=O)NCC(C)(C)C [Compound P-43, N-(2,2-dimethylpropyl)-6-(2,2-dimethylpropylamino)-3-methoxy-pyridine-2-carboxamide]	–	≥ 80	≥ 80
COc1ccc(Nc2cc(F)cc(F)c2)nc1C(=O)NCc1cccc2c1OC(F)(F)O2 [Compound P-58, 6-(3,5-difluoroanilino)-N-[(2,2-difluoro-1,3-benzodioxol-4-yl)methyl]-3-methoxy-pyridine-2-carboxamide]	≥ 80	–	≥ 80
COc1ccc(Nc2cc(F)cc(F)c2)nc1C(=O)NCC1(c2ccc(Cl)nc2)CC1 [Compound P-73, N-[[1-(6-chloro-3-pyridyl)cyclopropyl]methyl]-6-(3,5-difluoroanilino)-3-methoxy-pyridine-2-carboxamide]	≥ 80	≥ 80	≥ 80
COc1ccc(Nc2cnsc2)nc1C(=O)NCc1ccc(Oc2ccccc2)cc1 [Compound P-81, 6-(isothiazol-4-ylamino)-3-methoxy-N-[(4-phenoxyphenyl)methyl]pyridine-2-carboxamide]	≥ 80	≥ 80	–
COc1ccc(Nc2cnsc2)nc1C(=O)NCc1cccc2c1OC(F)(F)O2 [Compound P-82, N-[(2,2-difluoro-1,3-benzodioxol-4-yl)methyl]-6-(isothiazol-4-ylamino)-3-methoxy-pyridine-2-carboxamide]	≥ 80	≥ 80	–
C#CCOc1ccc(Nc2cc(F)cc(F)c2)nc1C(=O)NC(C)(C)C [Compound P-96, N-tert-butyl-6-(3,5-difluoroanilino)-3-prop-2-ynoxy-pyridine-2-carboxamide]	–	≥ 80	≥ 80
CC(C)(C)CNC(=O)c1nc(Nc2cc(F)nc(F)c2I)ccc1O [Compound P-106, 6-[(2,6-difluoro-3-iodo-4-pyridyl)amino]-N-(2,2-dimethylpropyl)-3-hydroxy-pyridine-2-carboxamide]	–	≥ 80	–
COc1ccc(Nc2cc(F)cc(F)c2)nc1C(=O)NCc1cc(C(F)(F)F)cc(C(F)(F)F)c1 [Compound P-115, N-[[3,5-bis(trifluoromethyl)phenyl]methyl]-6-(3,5-difluoroanilino)-3-methoxy-pyridine-2-carboxamide]	–	–	≥ 80
COc1ccc(Nc2cc(Cl)cc(Cl)c2)nc1C(=O)NCC(C)(C)C [Compound P-130, 6-(3,5-dichloroanilino)-N-(2,2-dimethylpropyl)-3-methoxy-pyridine-2-carboxamide]	≥ 80	–	≥ 80
COc1ccc(Nc2ccc(Cl)c(Cl)c2)nc1C(=O)NCC(C)(C)C [Compound P-131, 6-(3,4-dichloroanilino)-N-(2,2-dimethylpropyl)-3-methoxy-pyridine-2-carboxamide]	≥ 80	≥ 80	–
COc1ccc(Nc2cc(F)c(Cl)c(F)c2)nc1C(=O)NCC(C)(C)C [Compound P-135, 6-(4-chloro-3,5-difluoro-anilino)-N-(2,2-dimethylpropyl)-3-methoxy-pyridine-2-carboxamide]	–	–	≥ 80
COc1ccc(Nc2ccc(Cl)c(C)c2)nc1C(=O)NCC(C)(C)C [Compound P-138, 6-(4-chloro-3-methyl-anilino)-N-(2,2-dimethylpropyl)-3-methoxy-pyridine-2-carboxamide]	≥ 80	≥ 80	–
COc1ccc(Nc2ccc(C(F)(F)F)cc2)nc1C(=O)NC(C)(C)C [Compound P-150, N-tert-butyl-3-methoxy-6-[4-(trifluoromethyl)anilino]pyridine-2-carboxamide]	≥ 80	≥ 80	–
COC(=O)N(c1cc(F)cc(F)c1)c1ccc(OC)c(C(=O)NC2CCC2(C)C)n1 (centres unmarked) [Compound P-191, methyl N-(3,5-difluorophenyl)-N-[6-[(2,2-dimethylcyclobutyl)carbamoyl]-5-methoxy-2-pyridyl]carbamate]	≥ 80	–	≥ 80
